Experimental data: patent publication US20200069648A1, “HALOALLYLAMINE PYRAZOLE DERIVATIVE INHIBITORS OF LYSYL OXIDASES AND USES THEREOF” (Pharmaxis Ltd., priority 2017, published 2020)
Counter-ions that a name gives are not always drawn.

Key:
Recombinant human MAO-B = target: T1, Recombinant human MAO-B (Homo sapiens, UniProt P27338); experiment: Human recombinant MAO-B inhibition; format: biochemical; conditions: benzylamine 100 μM
T1 construct: purchased Sigma Aldrich
T1 sequence (P27338 1-520): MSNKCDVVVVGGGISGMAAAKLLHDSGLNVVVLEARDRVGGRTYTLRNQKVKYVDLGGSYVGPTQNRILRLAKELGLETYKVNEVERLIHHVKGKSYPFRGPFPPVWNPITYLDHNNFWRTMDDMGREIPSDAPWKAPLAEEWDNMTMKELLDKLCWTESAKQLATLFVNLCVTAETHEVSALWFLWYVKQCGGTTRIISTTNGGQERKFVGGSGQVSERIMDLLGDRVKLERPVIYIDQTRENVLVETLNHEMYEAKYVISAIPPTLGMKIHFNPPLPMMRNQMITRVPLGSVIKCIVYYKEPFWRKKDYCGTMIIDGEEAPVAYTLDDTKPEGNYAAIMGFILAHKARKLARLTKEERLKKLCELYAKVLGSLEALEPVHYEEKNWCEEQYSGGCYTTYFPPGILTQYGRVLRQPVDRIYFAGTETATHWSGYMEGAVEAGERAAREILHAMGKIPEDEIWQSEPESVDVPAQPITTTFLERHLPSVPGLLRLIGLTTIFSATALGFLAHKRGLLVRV
Procedure: Method to Determine the Ability of Compounds of Formula I to Inhibit Human Recombinant MAO-B
The specificity of the compounds of this invention was tested by determining their ability to inhibit MAO-B activities in vitro. Recombinant human MAO-B (0.06 mg/mL; Sigma Aldrich) was used as source of MAO-B enzyme activities. The assay was performed in a similar way as for human SSAO/VAP-1 (Example 46) except, the substrate benzylamine was used at 100 μM.

[1] = target: T2, human recombinant SSAO/VAP-1 (Homo sapiens, UniProt Q16853); experiment: Human recombinant SSAO/VAP-1 amine oxidase inhibition; format: biochemical; conditions: 30 min preincubation at 37° C., 600 μM benzylamine
T2 construct: a cloned cDNA template corresponding to residues 34-763 of human SSAO/VAP-1; TEV cleavage site (N); made in house
T2 sequence (Q16853 34-763): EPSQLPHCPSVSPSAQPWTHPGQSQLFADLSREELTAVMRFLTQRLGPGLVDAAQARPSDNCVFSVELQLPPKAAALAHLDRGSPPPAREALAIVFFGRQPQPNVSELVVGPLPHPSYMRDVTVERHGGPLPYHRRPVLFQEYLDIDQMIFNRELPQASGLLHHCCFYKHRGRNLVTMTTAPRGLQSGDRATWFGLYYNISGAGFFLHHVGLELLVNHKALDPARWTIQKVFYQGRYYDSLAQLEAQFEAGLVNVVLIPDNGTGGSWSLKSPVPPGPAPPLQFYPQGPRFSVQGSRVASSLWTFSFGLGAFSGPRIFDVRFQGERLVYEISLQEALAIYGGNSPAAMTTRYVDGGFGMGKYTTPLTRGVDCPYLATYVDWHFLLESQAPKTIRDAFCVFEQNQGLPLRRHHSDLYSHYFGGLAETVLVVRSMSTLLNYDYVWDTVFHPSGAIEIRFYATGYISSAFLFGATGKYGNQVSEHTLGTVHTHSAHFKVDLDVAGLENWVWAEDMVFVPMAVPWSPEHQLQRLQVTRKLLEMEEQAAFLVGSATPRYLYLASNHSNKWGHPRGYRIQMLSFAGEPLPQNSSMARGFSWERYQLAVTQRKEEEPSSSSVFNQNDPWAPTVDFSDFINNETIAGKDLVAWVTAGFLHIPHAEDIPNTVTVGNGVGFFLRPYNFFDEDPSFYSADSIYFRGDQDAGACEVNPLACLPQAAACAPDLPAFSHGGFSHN
Procedure: Method to Determine the Ability of Compounds of Formula I to Inhibit Human Recombinant SSAO/VAP-1
Human recombinant SSAO/VAP-1 amine oxidase activity was determined using the coupled colorimetric method as described for monoamine oxidase, copper-containing amine oxidases and related enzymes (Holt A. and Palcic M., A peroxidase-coupled continuous absorbance plate-reader assay for flavin monoamine oxidases, copper-containing amine oxidases and related enzymes. Nat Protoc 2006; 1: 2498-2505). Briefly, a cloned cDNA template corresponding to residues 34-763 of human SSAO/VAP-1, and incorporating a mouse Ig kappa (κ) signal sequence, N-terminal flag epitope tag and tobacco etch virus (TEV) cleavage site, was assembled in a mammalian expression vector (pLO-CMV) by Geneart AG. This vector containing human SSAO/VAP-1 residues was transfected into CHO-K1 glycosylation mutant cell line, Lec 8. A clone stably expressing human SSAO/VAP-1 was isolated and cultured in large scale. Active human SSAO/VAP-I was purified and recovered using immunoaffinity chromatography. This was used as the source for SSAO/VAP-1 activity. A high-throughput colorimetric assay was developed using either 96 or 384 well format. Briefly, in a standard 96 well plate assay 50 μL of purified human SSAO/VAP-1 (0.25 μg/mL) in 0.1 M sodium phosphate buffer (pH 7.4) was added into each well. Test compounds were dissolved in DMSO and tested in a Concentration Response Curve (CRC) with 4-11 data points, typically in the micromolar or nanomolar range after incubation with human SSAO/VAP-1 for 30 min at 37° C. After 30 min incubation, 50 μL of the reaction mixture containing 600 μM benzylamine (Sigma Aldrich), 120 μM Amplex Red (Sigma Aldrich) and 1.5 U/mL horseradish peroxidase (Sigma Aldrich) prepared in 0.1 M sodium phosphate buffer (pH 7.4) were added to the corresponding well. The fluorescence unit (RFU) was read every 2.5 min for 30 min at 37° C. excitation 565 nm and emission 590 (Optima; BMG labtech). The slope of the kinetics for each well was calculated using MARS data analysis software (BMG labtech) and this value was used to deduce the IC50 value (Dotmatics).

Compound	IC50 (Recombinant human MAO-B) [µM]	IC50 [1] [µM]
Cc1nn(C/C(F)=C/CN)c(C)c1Cc1ccc(S(=O)(=O)N(C)C)cc1 [Compound 2, (Z)-4-((1-(4-amino-2-fluorobut-2-en-1-yl)-3,5-dimethyl-1H-pyrazol-4-yl)methyl)-N,N-dimethylbenzenesulfonamide hydrochloride]	> 30	> 30
Cc1nn(Cc2cc(F)c(S(=O)(=O)N(C)C)cc2F)c(C)c1C/C(F)=C/CN [Compound 25, (Z)-4-((4-(4-amino-2-fluorobut-2-en-1-yl)-3,5-dimethyl-1H-pyrazol-1-yl)methyl)-2,5-difluoro-N,N-dimethylbenzenesulfonamide hydrochloride]	> 30	> 30
Cc1nn(C/C(F)=C/CN)c(C)c1Cc1ccc(C(=O)N(C)C)cc1 [Compound 14, (Z)-4-((1-(4-amino-2-fluorobut-2-en-1-yl)-3,5-dimethyl-1H-pyrazol-4-yl)methyl)-N,N-dimethylbenzamide hydrochloride]	> 30	> 30
Cc1nn(C/C(F)=C/CN)c(C)c1Cc1ccc(S(=O)(=O)N(C)C)c(C(F)(F)F)c1 [Compound 18, (Z)-4-((1-(4-amino-2-fluorobut-2-en-1-yl)-3,5-dimethyl-1H-pyrazol-4-yl)methyl)-N,N-dimethyl-2-(trifluoromethyl)benzenesulfonamide hydrochloride]	> 30	> 30
Cc1nn(C/C(F)=C/CN)c(C)c1Cc1ccc(S(C)(=O)=O)cc1Cl [Compound 12, (Z)-4-(4-(2-chloro-4-(methylsulfonyl)benzyl)-3,5-dimethyl-1H-pyrazol-1-yl)-3-fluorobut-2-en-1-amine hydrochloride]	> 30	< 10
CCc1nn(C/C(F)=C/CN)c(CC)c1Cc1ccc(S(=O)(=O)N(C)C)cc1 [Compound 13, (Z)-4-((1-(4-amino-2-fluorobut-2-en-1-yl)-3,5-diethyl-1H-pyrazol-4-yl)methyl)-N,N-dimethyl benzenesulfonamide hydrochloride]	> 30	> 30
Cc1nn(C/C(F)=C/CN)c(C(=O)NC(C)(C)C)c1Cc1ccc(S(=O)(=O)N(C)C)c(Cl)c1 [Compound 62, (Z)-1-(4-amino-2-fluorobut-2-en-1-yl)-N-(tert-butyl)-4-(3-chloro-4-(N,N-dimethylsulfamoyl)benzyl)-3-methyl-1H-pyrazole-5-carboxamide hydrochloride]	–	> 30
N#CCCN [BAPN, β-aminopropionitrile, reference compound]	> 100	> 100
Cc1nn(C/C(F)=C/CN)c(C)c1Cc1ccc(S(=O)(=O)N2CCOCC2)cc1 [Compound 6, (Z)-4-(3,5-dimethyl-4-(4-(morpholinosulfonyl)benzyl)-1H-pyrazol-1-yl)-3-fluorobut-2-en-1-amine hydrochloride]	> 30	> 30
Cc1nn(C/C(F)=C/CN)c(C)c1Cc1ccc(S(=O)(=O)N(C)C)c2ccccc12 [Compound 9, (Z)-4-((1-(4-amino-2-fluorobut-2-en-1-yl)-3,5-dimethyl-1H-pyrazol-4-yl)methyl)-N,N-dimethyl naphthalene-1-sulfonamide hydrochloride]	> 10	> 10
CNS(=O)(=O)c1cc(F)c(Cn2nc(C)c(C/C(F)=C/CN)c2C)cc1F [Compound 26, (Z)-4-((4-(4-amino-2-fluorobut-2-en-1-yl)-3,5-dimethyl-1H-pyrazol-1-yl)methyl)-2,5-difluoro-N-methylbenzenesulfonamide hydrochloride]	> 30	< 10
Cc1c(Cc2ccc(S(=O)(=O)N(C)C)cc2)c(C(=O)N(C)C)nn1C/C(F)=C/CN [Compound 32, (Z)-1-(4-amino-2-fluorobut-2-enyl)-4-(4-(N,N-dimethylsulfamoyl)benzyl)-N,N,5-trimethyl-1H-pyrazole-3-carboxamide hydrochloride]	> 30	> 30
Cc1nn(C/C(F)=C/CN)c(C(=O)N(C)C)c1Cc1ccc(S(=O)(=O)N(C)C)cc1 [Compound 29, (Z)-1-(4-amino-2-fluorobut-2-enyl)-4-(4-(N,N-dimethylsulfamoyl)benzyl)-N,N,3-trimethyl-1H-pyrazole-5-carboxamide hydrochloride]	> 30	> 30
Cc1nn(C/C(F)=C/CN)c(C)c1Cc1ccc(S(=O)(=O)N(C)C)c(Cl)c1 [Compound 15, (Z)-4-((1-(4-amino-2-fluorobut-2-en-1-yl)-3,5-dimethyl-1H-pyrazol-4-yl)methyl)-2-chloro-N,N-dimethylbenzenesulfonamide hydrochloride]	> 30	< 10
CC(C)c1nn(C/C(F)=C/CN)c(C(C)C)c1Cc1ccc(S(=O)(=O)N(C)C)c(Cl)c1 [Compound 60, (Z)-4-((1-(4-amino-2-fluorobut-2-en-1-yl)-3,5-diisopropyl-1H-pyrazol-4-yl)methyl)-2-chloro-N,N-dimethylbenzenesulfonamide hydrochloride]	–	> 30
Cc1nn(C/C(F)=C/CN)c(C)c1Cc1ccc(S(=O)(=O)N(C)C)cc1Cl [Compound 3, (Z)-4-((1-(4-amino-2-fluorobut-2-en-1-yl)-3,5-dimethyl-1H-pyrazol-4-yl)methyl)-3-chloro-N,N-dimethylbenzenesulfonamide hydrochloride]	> 30	> 30
Cc1nn(C/C(F)=C/CN)c(C)c1Cc1ccc(S(C)(=O)=O)cc1 [Compound 4, (Z)-4-(3,5-dimethyl-4-(4-(methylsulfonyl)benzyl)-1H-pyrazol-1-yl)-3-fluorobut-2-en-1-amine hydrochloride]	> 30	> 30
Cc1nn(C/C(F)=C/CN)c(C(=O)N(C)C)c1Cc1ccc(S(=O)(=O)N(C)C)c(Cl)c1 [Compound 61, (Z)-1-(4-amino-2-fluorobut-2-en-1-yl)-4-(3-chloro-4-(N,N-dimethylsulfamoyl)benzyl)-N,N,3-trimethyl-1H-pyrazole-5-carboxamide hydrochloride]	–	> 30
CC(C)c1nn(C/C(F)=C/CN)c(C(C)O)c1Cc1ccc(S(=O)(=O)N(C)C)c(Cl)c1 (stereo not shown) [Compound 59, (Z)-4-((1-(4-amino-2-fluorobut-2-en-1-yl)-5-(1-hydroxyethyl)-3-isopropyl-1H-pyrazol-4-yl)methyl)-2-chloro-N,N-dimethylbenzenesulfonamide hydrochloride]	–	> 30
